The structures appear in SMILES notation.

In the experiment the target is CK2A1 (CK2α/β) (Homo sapiens, UniProt P68400). Put plainly: CK2 kinase assay, CK2A1 (CK2α/β). The format is biochemical. Particulars: Table A; read-out: CK2A1 (CK2α/β) (IC50).
Chain of CK2A1 (CK2α/β) (P68400 whole entry, species assumed): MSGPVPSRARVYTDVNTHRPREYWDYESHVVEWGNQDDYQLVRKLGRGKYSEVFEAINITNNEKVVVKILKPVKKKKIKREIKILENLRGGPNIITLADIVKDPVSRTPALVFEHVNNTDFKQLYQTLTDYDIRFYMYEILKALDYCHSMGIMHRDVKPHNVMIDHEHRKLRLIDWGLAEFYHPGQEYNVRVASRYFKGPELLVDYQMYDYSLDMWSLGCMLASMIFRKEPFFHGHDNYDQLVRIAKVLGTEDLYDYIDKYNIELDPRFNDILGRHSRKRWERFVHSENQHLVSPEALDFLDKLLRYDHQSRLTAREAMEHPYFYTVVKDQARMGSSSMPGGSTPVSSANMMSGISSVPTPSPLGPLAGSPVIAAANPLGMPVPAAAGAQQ
Chain of CK2A1 (CK2α/β) (P67870 whole entry partner, species assumed): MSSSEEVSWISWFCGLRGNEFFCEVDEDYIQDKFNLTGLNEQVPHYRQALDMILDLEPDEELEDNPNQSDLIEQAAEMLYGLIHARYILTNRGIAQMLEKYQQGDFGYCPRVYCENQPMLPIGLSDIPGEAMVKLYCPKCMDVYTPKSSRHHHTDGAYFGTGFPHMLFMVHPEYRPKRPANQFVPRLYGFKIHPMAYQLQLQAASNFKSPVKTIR
With `C[C@H]1CC(CN2CCN(c3cc(C#N)cc(Nc4nc(NC5CC5)c5ncc(C#N)n5n4)c3Cl)CC2)O1` (stereo partly drawn) [Example 529, 2-((2-chloro-5-cyano-3-(4-(((4S)-4-methyloxetan-2-yl)methyl)piperazin-1-yl)phenyl)amino)-4-(cyclopropylamino)imidazo[2,1-f][1,2,4]triazine-7-carbonitrile], the IC50 turned out to be 1.33 nM.
In the case of `C=C(C)/C=C/CN1CCN(c2cc(C#N)cc(Nc3nc(NC4CC4)c4ncc(C#N)n4n3)c2Cl)CC1` [Example 530, (E)-2-((2-chloro-5-cyano-3-(4-(4-methylpenta-2,4-dien-1-yl)piperazin-1-yl)phenyl)amino)-4-(cyclopropylamino)imidazo[2,1-f][1,2,4]triazine-7-carbonitrile] it was 6.24 nM; in that of `N#Cc1cc(Nc2nc(NC3CC3)c3ncc(C#N)n3n2)c(Cl)c(N2CCN(CC3CCCO3)CC2)c1` (stereo not shown) [Example 531, 2-((2-chloro-5-cyano-3-(4-((tetrahydrofuran-2-yl)methyl)piperazin-1-yl)phenyl)amino)-4-(cyclopropylamino)imidazo[2,1-f][1,2,4]triazine-7-carbonitrile], 0.44 nM; in that of `N#Cc1cc(Nc2nc(NC3CC3)c3ncc(C#N)n3n2)c(Cl)c(N2CCN(CC3COCCO3)CC2)c1` (stereo not shown) [Example 532, 2-((3-(4-((1,4-dioxan-2-yl)methyl)piperazin-1-yl)-2-chloro-5-cyanophenyl)amino)-4-(cyclopropylamino)imidazo[2,1-f][1,2,4]triazine-7-carbonitrile], 0.85 nM.
For the compound `N#Cc1cc(Nc2nc(NC3CC3)c3ncc(C#N)n3n2)c(Cl)c(N2CCN(C(=O)OCC3(CO)COC3)CC2)c1` [Example 533, (3-(hydroxymethyl)oxetan-3-yl)methyl 4-(2-chloro-5-cyano-3-((7-cyano-4-(cyclopropylamino)imidazo[2,1-f][1,2,4]triazin-2-yl)amino)phenyl)piperazine-1-carboxylate], the IC50 worked out at 0.43 nM.
In the case of `N#Cc1cc(Nc2nc(NC3CC3)c3ncc(C#N)n3n2)c(Cl)c(N2CCN(C(=O)OCC3CCCO3)CC2)c1` (stereo not shown) [Example 534, (tetrahydrofuran-2-yl)methyl 4-(2-chloro-5-cyano-3-((7-cyano-4-(cyclopropylamino)imidazo[2,1-f][1,2,4]triazin-2-yl)amino)phenyl)piperazine-1-carboxylate] it was 0.51 nM; in that of `CC(C)(O)CC1(N2CCN(c3cc(C#N)cc(Nc4nc(NC5CC5)c5ncc(C#N)n5n4)c3Cl)CC2)COC1` [Example 536, 2-((2-chloro-5-cyano-3-(4-(3-(2-hydroxy-2-methylpropyl)oxetan-3-yl)piperazin-1-yl)phenyl)amino)-4-(cyclopropylamino)imidazo[2,1-f][1,2,4]triazine-7-carbonitrile], 1.55 nM.
In the case of `N#Cc1cc(Nc2nc(NC3CC3)c3ncc(C#N)n3n2)c(Cl)c(N2CCN(C3(CCO)COC3)CC2)c1` [Example 537, 2-((2-chloro-5-cyano-3-(4-(3-(2-hydroxyethyl)oxetan-3-yl)piperazin-1-yl)phenyl)amino)-4-(cyclopropylamino)imidazo[2,1-f][1,2,4]triazine-7-carbonitrile] it was 1.04 nM.
On to `N#Cc1cc(Nc2nc(NC3CC3)c3ncc(C#N)n3n2)c(Cl)c(N2CCN(C3(CO)COC3)CC2)c1` [Example 538, 2-((2-chloro-5-cyano-3-(4-(3-(hydroxymethyl)oxetan-3-yl)piperazin-1-yl)phenyl)amino)-4-(cyclopropylamino)imidazo[2,1-f][1,2,4]triazine-7-carbonitrile], for which the IC50 was 2.1 nM.
In the case of `N#Cc1cc(Nc2nc(NC3CC3)c3ncc(C#N)n3n2)c(Cl)c(N2CCN(C(CO)CO)CC2)c1` [Example 539, 2-((2-chloro-5-cyano-3-(4-(1,3-dihydroxypropan-2-yl)piperazin-1-yl)phenyl)amino)-4-(cyclopropylamino)imidazo[2,1-f][1,2,4]triazine-7-carbonitrile] it was 0.93 nM; in that of `CC(=O)NCC1(N2CCN(c3cc(C#N)cc(Nc4nc(NC5CC5)c5ncc(C#N)n5n4)c3Cl)CC2)COC1` [Example 540, N-((3-(4-(2-chloro-5-cyano-3-((7-cyano-4-(cyclopropylamino)imidazo[2,1-f][1,2,4]triazin-2-yl)amino)phenyl)piperazin-1-yl)oxetan-3-yl)methyl)acetamide], 6.02 nM.
In the case of `CC(=O)N1CCN(C2CN(c3cc(C#N)cc(Nc4nc(NC5CC5)c5ncc(C#N)n5n4)c3Cl)C2)CC1` [Example 541, 2-((3-(3-(4-acetylpiperazin-1-yl)azetidin-1-yl)-2-chloro-5-cyanophenyl)amino)-4-(cyclopropylamino)imidazo[2,1-f][1,2,4]triazine-7-carbonitrile], the IC50 was 0.57 nM.
With `CCNc1nc(Nc2cc(C#N)cc(N3CCN(C4(C)COC4)CC3)c2Cl)nn2c(C#N)cnc12` [Example 542, 2-((2-chloro-5-cyano-3-(4-(3-methyloxetan-3-yl)piperazin-1-yl)phenyl)amino)-4-(ethylamino)imidazo[2,1-f][1,2,4]triazine-7-carbonitrile], the IC50 stood at 1.35 nM.
Consider `CCNc1nc(Nc2cc(C#N)cc(N3CCN(C4(CCO)COC4)CC3)c2Cl)nn2c(C#N)cnc12` [Example 543, 2-((2-chloro-5-cyano-3-(4-(3-(2-hydroxyethyl)oxetan-3-yl)piperazin-1-yl)phenyl)amino)-4-(ethylamino)imidazo[2,1-f][1,2,4]triazine-7-carbonitrile], for which the IC50 was found to be 1.1 nM.
In the case of `CCOC(=O)C1CCN(c2cc(C(F)F)cc(Nc3nc(NC4CC4)c4ncc(C#N)n4n3)c2Cl)CC1` [Example 544, ethyl 1-(2-chloro-3-((7-cyano-4-(cyclopropylamino)imidazo[2,1-f][1,2,4]triazin-2-yl)amino)-5-(difluoromethyl)phenyl)piperidine-4-carboxylate] it was 28.2 nM.
`N#Cc1cnc2c(NC3CC3)nc(Nc3cc(C(F)F)cc(N4CCC(C(=O)O)CC4)c3Cl)nn12` [Example 545, 1-(2-chloro-3-((7-cyano-4-(cyclopropylamino)imidazo[2,1-f][1,2,4]triazin-2-yl)amino)-5-(difluoromethyl)phenyl)piperidine-4-carboxylic acid]: the IC50 amounted to 1.55 nM.
With `CN1CCN(C(=O)C2CCN(c3cc(C(F)F)cc(Nc4nc(NC5CC5)c5ncc(C#N)n5n4)c3Cl)CC2)CC1` [Example 546, 2-((2-chloro-5-(difluoromethyl)-3-(4-(4-methylpiperazine-1-carbonyl)piperidin-1-yl)phenyl)amino)-4-(cyclopropylamino)imidazo[2,1-f][1,2,4]triazine-7-carbonitrile], the IC50 was determined as 2.7 nM.
For `N#Cc1cnc2c(NC3CC3)nc(Nc3cc(C(F)F)cc(N4CCC(C(=O)NC5COC5)CC4)c3Cl)nn12` [Example 547, 1-(2-chloro-3-((7-cyano-4-(cyclopropylamino)imidazo[2,1-f][1,2,4]triazin-2-yl)amino)-5-(difluoromethyl)phenyl)-N-(oxetan-3-yl)piperidine-4-carboxamide], the IC50 is 2.3 nM.
In the case of `N#Cc1cc(Nc2nc(NC3CC3)c3ncc(C#N)n3n2)c(F)c(N2CCN(C3COC3)CC2)c1` [Example 548, 2-((5-cyano-2-fluoro-3-(4-(oxetan-3-yl)piperazin-1-yl)phenyl)amino)-4-(cyclopropylamino)imidazo[2,1-f][1,2,4]triazine-7-carbonitrile] it was 0.8 nM.

The values above are taken from patent US9273057B2 (Bristol-Myers Squibb Company, priority 2012, dated 2016).
